Reference: PubChem BioAssay AID330 (DTP/NCI, 2004)
Values joined by “and” are separate entries in the source; they are usually repeats but may differ in a detail not shown here. Identical values can stand only once. Toxic doses and inconclusive results are not listed. Rule for the calls: active = survival T/C of 150% or more; inactive = T/C below 125% in these data. Peptide text beside a SMILES is read from it. * marks the point of attachment. For = O=C*

Test system: P388 leukemia ip, CD2F1 mice, survival T/C
Test: NCI In Vivo Anticancer Drug Screen. Data for tumor model P388 Leukemia (intraperitoneal) in CD2F1 (CDF1) mice
Details: endpoint: median survival time, higher = longer survival
Summary of the method: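 Mice carrying the transplanted tumor received test compound or vehicle. Survival was recorded in each group, and the value is the treated-group measurement divided by that of the vehicle-treated control group.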

[1] = dose: 100.0 mg/kg/injection, schedule: Q01DX001 (ip), vehicle: Klucel (hydroxypropylcellulose) (HPC)
[2] = dose: 200.0 mg/kg/injection, schedule: Q01DX001 (ip), vehicle: Klucel (hydroxypropylcellulose) (HPC)
[3] = dose: 400.0 mg/kg/injection, schedule: Q01DX001 (ip), vehicle: Klucel (hydroxypropylcellulose) (HPC)
[4] = dose: 60.0 mg/kg/injection, schedule: Q01DX005 (ip), vehicle: Klucel (hydroxypropylcellulose) (HPC)
[5] = dose: 120.0 mg/kg/injection, schedule: Q01DX005 (ip), vehicle: Klucel (hydroxypropylcellulose) (HPC)
[6] = dose: 240.0 mg/kg/injection, schedule: Q01DX005 (ip), vehicle: Klucel (hydroxypropylcellulose) (HPC)
[7] = dose: 50.0 mg/kg/injection, schedule: Q01DX009 (ip), vehicle: Klucel (hydroxypropylcellulose) (HPC)
[8] = dose: 100.0 mg/kg/injection, schedule: Q01DX009 (ip), vehicle: Klucel (hydroxypropylcellulose) (HPC)

Measured: T/C

NC(CCCCNC(=O)OCCCCCOC(=O)NCCCCC(N)C(=O)O)C(=O)O (stereo not given)
inactive: dose: 50.0 mg/kg/injection, schedule: Q01DX009 (ip), vehicle: suspension in saline 95 % of control | dose: 100.0 mg/kg/injection, schedule: Q01DX009 (ip), vehicle: suspension in saline 106 % of control | dose: 200.0 mg/kg/injection, schedule: Q01DX009 (ip), vehicle: suspension in saline 104 % of control

O=C1/C(=C/c2cccc([N+](=O)[O-])c2)SC(=S)N1C1CC1
inactive: dose: 50.0 mg/kg/injection, schedule: Q01DX005 (ip), vehicle: Klucel (hydroxypropylcellulose) (HPC) 89 % of control | dose: 100.0 mg/kg/injection, schedule: Q01DX005 (ip), vehicle: Klucel (hydroxypropylcellulose) (HPC) 89 % of control

O=C1OCCC(O)=C1C=Nc1ccccc1
inactive: dose: 6.25 mg/kg/injection, schedule: Q01DX005 (ip), vehicle: Klucel (hydroxypropylcellulose) (HPC) 108 % of control | dose: 12.5 mg/kg/injection, schedule: Q01DX005 (ip), vehicle: Klucel (hydroxypropylcellulose) (HPC) 112 % of control | dose: 25.0 mg/kg/injection, schedule: Q01DX005 (ip), vehicle: Klucel (hydroxypropylcellulose) (HPC) 117 % of control | [1] 100 % of control | [2] 97 % of control | [3] 99 % of control

N#CC=Cc1ccc([N+](=O)[O-])s1 (mixture of isomers)
inactive: dose: 12.5 mg/kg/injection, schedule: Q01DX005 (ip), vehicle: saline with Tween-80 109 % of control | dose: 25.0 mg/kg/injection, schedule: Q01DX005 (ip), vehicle: saline with Tween-80 115 % of control

C/C=C(\C)C(=O)OCc1c2c(c(OC)c3occ(C)c13)C=CCC2C (stereo not given)
inactive: dose: 5.5 mg/kg/injection, schedule: Q01DX009 (ip), vehicle: Klucel (hydroxypropylcellulose) (HPC) 94 % of control | dose: 11.0 mg/kg/injection, schedule: Q01DX009 (ip), vehicle: Klucel (hydroxypropylcellulose) (HPC) 100 % of control | dose: 22.0 mg/kg/injection, schedule: Q01DX009 (ip), vehicle: Klucel (hydroxypropylcellulose) (HPC) 100 % of control | dose: 44.0 mg/kg/injection, schedule: Q01DX009 (ip), vehicle: Klucel (hydroxypropylcellulose) (HPC) 104 % of control

NC(=NCCSCc1ccccc1)NCCc1cnc[nH]1
inactive: dose: 100.0 mg/kg/injection, schedule: Q01DX001 (ip), vehicle: saline with Tween-80 102 % of control | dose: 200.0 mg/kg/injection, schedule: Q01DX001 (ip), vehicle: saline with Tween-80 102 % of control | dose: 400.0 mg/kg/injection, schedule: Q01DX001 (ip), vehicle: saline with Tween-80 98 % of control

O=C1CCC(=O)N1CN(CS(=O)(=O)c1ccc(Cl)cc1)c1ccc(Cl)cc1
inactive: [4] 90 % of control | [5] 88 % of control | [6] 90 % of control

Fc1ccc(NC(=S)SCc2ccc3c(c2)OCO3)cc1F
inactive: [7] 119 % of control | [8] 102 % of control | dose: 200.0 mg/kg/injection, schedule: Q01DX009 (ip), vehicle: Klucel (hydroxypropylcellulose) (HPC) 86 % of control

CC(C)C(NC=O)C(=O)NCC(=O)NC(CO)C(=O)NC(CCC(=O)O)C(=O)O (stereo not given) (For-VGSE-OH; configuration not given here)
inactive: dose: 9.0 mg/kg/injection, schedule: Q01DX005 (ip), vehicle: water 110 % of control | dose: 18.0 mg/kg/injection, schedule: Q01DX005 (ip), vehicle: water 101 % of control | dose: 36.0 mg/kg/injection, schedule: Q01DX005 (ip), vehicle: water 110 % of control | dose: 72.0 mg/kg/injection, schedule: Q01DX005 (ip), vehicle: water 110 % of control | dose: 144.0 mg/kg/injection, schedule: Q01DX005 (ip), vehicle: water 106 % of control

Cc1[nH]cnc1CSCCN=C(N)n1[nH]cc(-c2ccc(Cl)cc2)c1=O
inactive: [1] 100 % of control | [2] 97 % of control | [3] 101 % of control

Cc1ccc(C(CC(=O)O)C(N)C(=O)O)cc1 (stereo not given)
inactive: dose: 12.5 mg/kg/injection, schedule: Q01DX009 (ip), vehicle: saline 98 % of control | dose: 25.0 mg/kg/injection, schedule: Q01DX009 (ip), vehicle: saline 88 % of control | dose: 50.0 mg/kg/injection, schedule: Q01DX009 (ip), vehicle: saline 95 % of control and 96 % of control | dose: 100.0 mg/kg/injection, schedule: Q01DX009 (ip), vehicle: saline 100 % of control | dose: 200.0 mg/kg/injection, schedule: Q01DX009 (ip), vehicle: saline 95 % of control

CCOC(=O)c1cnc2cc3c(cc2c1Nc1ccccc1)OCO3
inactive: [4] 94 % of control | [5] 99 % of control | [6] 95 % of control

CCOC(=O)c1sc2nc(C)[nH]c(=O)c2c1C
inactive: dose: 50.0 mg/kg/injection, schedule: Q01DX005 (ip), vehicle: saline with Tween-80 99 % of control

C[Si](C)(C)N[Si](C)(C)C
inactive: [7] 100 % of control | [8] 102 % of control
